Measured values taken from ChEMBL document CHEMBL5674860, “Optimized Dual-Glo Assay to identify co-culture-induced drug vulnerabilities in 3D CRC models” (2024).
Where “and” joins values, the source holds several entries; their conditions need not be identical. Identical values can stand only once.

Legend:
Assay type in all cases: functional, Homo sapiens
Set-up in all cases: dose or concentration left out as unconfirmed
Colon cancer organoid [1] = assay: Optimized Dual-Glo assay to identify co-culture induced drug vulnerabilities using donated chemical probes and chemogenomics kinase set in O06 CRC organoid and F06 CAF mono and co-culture. […] Cell viability is reported both mono and co-culture models.
Colon cancer organoid [2] = assay: Optimized Dual-Glo assay to identify co-culture induced drug vulnerabilities using donated chemical probes and chemogenomics kinase set in O20 CRC organoid and F20 CAF mono and co-culture. […] Cell viability is reported both mono and co-culture models.
Colon cancer organoid [3] = assay: Optimized Dual-Glo assay to identify co-culture induced drug vulnerabilities using donated chemical probes and chemogenomics kinase set in O14 CRC organoid and F14 CAF mono and co-culture. […] Cell viability is reported both mono and co-culture models.
[4] = Culture type Co-Culture, Transduced with Lucferase2-P2A-EGFP lentivirus
[5] = Culture type Co-Culture, Transduced with Renilla-dsRed lentivirus
[6] = Culture type Mono-Culture, Transduced with Lucferase2-P2A-EGFP lentivirus
[7] = Culture type Mono-Culture, Transduced with Renilla-dsRed lentivirus

Compound	Cell Viability (Colon cancer organoid [1]; [4])	Cell Viability (Colon cancer organoid [1]; [5])	Cell Viability (Colon cancer organoid [1]; [6])	Cell Viability (Colon cancer organoid [1]; [7])	Cell Viability (Colon cancer organoid [2]; [4])	Cell Viability (Colon cancer organoid [2]; [5])	Cell Viability (Colon cancer organoid [2]; [6])	Cell Viability (Colon cancer organoid [2]; [7])	Cell Viability (Colon cancer organoid [3]; [4])	Cell Viability (Colon cancer organoid [3]; [5])	Cell Viability (Colon cancer organoid [3]; [6])	Cell Viability (Colon cancer organoid [3]; [7])
Cc1ccc(-c2ccc3c(ccc4sc5c(c43)NC[C@@H](C)NC5=O)n2)cn1	100.355%	85.371%	114.604%	88.0896%	152.499%	70.7863%	154.638%	67.5844%	126.339%	65.0441%	182.208%	70.7861%
CCOc1cc(N2CCC(O)CC2)ccc1Nc1ncc2c(n1)N(C)c1ccccc1C(=O)N2C	85.6087%	128.987%	73.5863%	165.88%	81.7751%	117.331%	65.2469%	115.42%	76.0009%	186.577%	84.1713%	122.992%
Cc1ccc(NC(=O)Nc2cc(C(F)(F)F)ccc2F)cc1Nc1ccc2c(c1)NC(=O)/C2=C\c1ccc[nH]1	112.777%	121.077%	144.763%	85.6075%	98.8429%	67.3177%	149.041%	99.6693%	100.84%	80.7866%	148.906%	94.1932%
OCCn1cc(-c2ccc3c(c2)CCC3=NO)c(-c2ccncc2)n1	81.3359%	109.303%	157.495%	121.815%	201.802%	70.8995%	81.9137%	103.135%	155.629%	130.506%	186.115%	118.266%
Nc1ccc(C(=O)Nc2cccc(-c3nc(N4CCOCC4)c4oc5ncccc5c4n3)c2)cn1	78.745%	81.5262%	28.4733%	93.3288%	142.389%	75.1771%	60.1963%	81.7819%	67.7704%	105.191%	42.3601%	61.5192%
O=C1[C@H](Cc2ccc(O)cc2)N2C(=O)CCN(C(=O)NCc3ccccc3)[C@H]2CN1Cc1cccc2ccccc12	79.2211%	124.216%	100.059%	61.7438%	89.6614%	144.616%	131.376%	33.7268%	20.45%	145.967%	17.2238%	77.2237%
CCOC(=O)Nc1cc(-c2ccc(C)c(NS(C)(=O)=O)c2)nn2c(C)nnc12	112.605%	266.102%	81.8905%	215.442%	38.58%	177.965%	39.5437%	109.867%	71.1092%	228.167%	66.8371%	176.186%
COc1ccccc1-c1cc(Nc2cccc(CS(N)(=O)=O)c2)ncn1	105.6%	95.8866%	67.576%	79.9168%	104.861%	97.4583%	84.7968%	76.3761%	107.839%	92.9577%	111.603%	77.4194%
COc1ccccc1C(=O)Nc1cc2c(cc1N1CCCC1)n(C)c(=O)n2C	–	–	–	–	113.69%	143.545%	104.265%	110.449%	94.3985%	117.237%	96.8906%	95.8256%
Cc1ccc(C(=O)Nc2cccc(C(F)(F)F)c2)cc1Nc1nc(-c2cccnc2)nc2c1cnn2C	60.2736%	70.9034%	100.972%	83.1262%	141.672%	123.917%	68.1835%	97.2478%	103.322%	86.6207%	91.8457%	71.8424%
CC1=C(C(=O)Nc2cc3cn[nH]c3cc2F)C(c2ccc(C(F)(F)F)cc2)CC(=O)N1 (stereo unspecified)	110.512%	74.1449%	112.137%	107.646%	133.522%	94.2958%	98.8555%	95.2955%	79.4624%	111.728%	79.1311%	103.404%
CCOc1cn(-c2ccc(F)cc2C)nc1C(=O)Nc1ccc(Oc2ccnc3cc(OC)c(OC)cc23)c(F)c1	87.51% and 89.4828%	84.5689% and 64.7371%	86.2071% and 96.2779%	101.871% and 88.7626%	230.831% and 191.214%	78.4446% and 96.4847%	106.501% and 84.8653%	96.6073% and 93.6855%	102.771% and 90.3388%	85.9243% and 77.553%	131.662% and 123.945%	95.388% and 87.085%
COc1cc(-c2cn(C)c(=O)c3cnccc23)c(OC)cc1CN(C)C	79.252%	108.934%	73.0791%	96.9165%	61.2069%	139.676%	83.2777%	82.5544%	86.2085%	136.409%	67.8836%	114.194%
CN(C)C(=O)/C(C#N)=C/c1ccc(-c2nc3cnc4[nH]ccc4c3n2C2CCCCC2)o1	95.2227%	96.9669%	138.382%	96.6584%	75.2682%	130.215%	113.424%	104.709%	115.273%	92.8472%	120.035%	91.5278%
Cl.Cl.NC1(c2ccc(-c3nc4ccn5c(=O)[nH]nc5c4cc3-c3ccccc3)cc2)CCC1	52.26%	91.614%	79.8603%	69.8373%	44.0229%	145.22%	34.39%	114.515%	42.2425%	103.472%	90.3868%	88.3443%
Cn1cc(-c2ccc3occ(-c4ccccc4-c4ccccc4)c3n2)cn1	137.24%	150.558%	120.153%	121.662%	88.7548%	89.3741%	123.78%	115.172%	101.217%	93.8283%	119.561%	96.0811%
Cn1cc(-c2ccc3occ(-c4cccc(-c5ccncc5)c4)c3n2)cn1	91.2802%	94.5664%	138.621%	110.377%	65.7439%	132.411%	69.6903%	72.543%	113.323%	67.5057%	72.9931%	81.4959%
CN(C)C(=O)/C(C#N)=C/c1ccc(-c2nc3cnc4c(ccn4C)c3n2C2CCCCC2)o1	100.774%	167.563%	117.157%	133.695%	49.7098%	127.191%	136.658%	125.979%	95.1732%	102.012%	142.854%	112.554%
CS(=O)(=O)N1CCN(Cc2cc3nc(-c4cccc5[nH]ncc45)nc(N4CCOCC4)c3s2)CC1 [PICTILISIB]	43.124%	60.0718%	35.1251%	58.2983%	–	–	–	–	–	–	–	–
